In US9925170B2, “Methods of adipolysis and compositions useful therein” (priority 2015, dated 2018):

Key:
[1] = test system: subcutaneous adipose tissue; test: Daily topical or intraperitoneal administration in mice, histopathology of mid-scapular skin; format: in vivo, Female BALB/cAnNCrl mice
Method: Female BALB/cAnNCrl mice were divided into five groups of three mice/group and seven groups of eight mice/group. Mice in Group 1 were age-matched, untreated pre-study reference animals, and mice in Group 2 were age-matched, untreated Day 29 reference animals. […] Mid-scapular skin was collected from each animal and histopathological examination was performed to determine the effects of the test articles on subcutaneous adipose deposition and skin thickness.

subcutaneous fat layer = conditions: 25 mg/kg intraperitoneal, 28 consecutive days (FIG. 6)
Method: Three untreated mice were used as reference animals. On Day 29, all animals were sacrificed and histopathological examination of the dorsal lumbar skin was performed. […] The severity of subcutaneous fat atrophy was scored on a scale ranging from normal (score of “0”) to severe (score of “4”).

Human mature adipocytes = test system: Human mature adipocytes
Method: Human pre-adipocytes (Lonza, Allendale, N.J.) were differentiated into mature adipocytes according to the supplier's instructions. Mature adipocytes in maintenance medium (Zen-Bio, Research Triangle Park, N.C.) were treated with different statins (Sigma, St. Louis, Mo.) for 7 days over a range of concentrations. Cell viability was measured at Day 1, 3, 5, and 7 using the ALAMARBLUE® assay (Invitrogen, Carlsbad, Calif.).

[2] = intraperitoneal 25 mg/kg, 28 days

Row | Structure (SMILES) | atrophy of subcutaneous adipose tissue [1, 2] | atrophy of subcutaneous adipose tissue ([1]; topical 0.5%, 7 days) | atrophy of subcutaneous adipose tissue ([1]; topical 2.5%, 7 days) | atrophy of subcutaneous adipose tissue ([1]; topical 2.5%, 28 days) | fat layer atrophy in skin sections (subcutaneous fat layer) | atrophy of subcutaneous adipose tissue ([1]; topical 0.5%, 28 days) | dose dependence of cytotoxic effect (Human mature adipocytes)
1 | Cc1ccc(N(CC2=NCCN2)c2cccc(O)c2)cc1 [phentolamine] | present in skin of all mice | present in mice | present in mice | in one mouse |  |  | 
2 | CC[C@H](C)C(=O)O[C@H]1C[C@@H](C)C=C2C=C[C@H](C)[C@H](CC[C@@H]3C[C@@H](O)CC(=O)O3)[C@H]21 [lovastatin] | present in skin of all mice |  | present in all mice | present in all mice | significant fat layer atrophy | Only one mouse | 
3 | CC(C)n1c(/C=C/C(O)CC(O)CC(=O)O)c(-c2ccc(F)cc2)c2ccccc21 (stereo not drawn) [fluvastatin] |  |  |  |  |  |  | dose-dependent cytotoxic effect
4 | CC(=O)[C@H]1CC[C@H]2[C@@H]3CC=C4C[C@@H](O)CC[C@]4(C)[C@H]3CC[C@]12C [pregnenolone] | present in skin of all mice |  |  |  |  | present in a one mouse | 
